Counter-ions that a name gives are not always drawn.
Key:
[1] = target: T1, Nav1.7 (or SCN9A) channel (Homo sapiens, UniProt Q15858); experiment: Nav1.7 (hSCN9A) electrophysiology assay, PatchXpress platform; format: cell-based; conditions: estimated IC50 from single point electrophysiology data, HEK cells stably expressing hSCN9A, held at V1/2 of inactivation, read-out: Nav1.7 EIC50
T1 construct: expressed in transfected cells
Outline: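 HEK cells stably expressing hSCN9A were recorded by whole-cell voltage clamp, including on PatchXpress, at 22–24°C with extracellular solution at pH 7.4. A 20 msec step to 0 mV followed an 8 s conditioning prepulse to the empirically determined inactivation V1/2. Inhibition was taken from current amplitude before vs after compound.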

[2] = target: T1, Nav1.7 (or SCN9A) channel; experiment: Nav1.7 (hSCN9A) electrophysiology assay, Ionworks Quattro platform; format: cell-based; conditions: IW: Ionworks Quattro automated electrophysiological platform; HEK cells stably expressing hSCN9A; read-out: Nav1.7 EIC50

T1 sequence (Q15858 whole entry): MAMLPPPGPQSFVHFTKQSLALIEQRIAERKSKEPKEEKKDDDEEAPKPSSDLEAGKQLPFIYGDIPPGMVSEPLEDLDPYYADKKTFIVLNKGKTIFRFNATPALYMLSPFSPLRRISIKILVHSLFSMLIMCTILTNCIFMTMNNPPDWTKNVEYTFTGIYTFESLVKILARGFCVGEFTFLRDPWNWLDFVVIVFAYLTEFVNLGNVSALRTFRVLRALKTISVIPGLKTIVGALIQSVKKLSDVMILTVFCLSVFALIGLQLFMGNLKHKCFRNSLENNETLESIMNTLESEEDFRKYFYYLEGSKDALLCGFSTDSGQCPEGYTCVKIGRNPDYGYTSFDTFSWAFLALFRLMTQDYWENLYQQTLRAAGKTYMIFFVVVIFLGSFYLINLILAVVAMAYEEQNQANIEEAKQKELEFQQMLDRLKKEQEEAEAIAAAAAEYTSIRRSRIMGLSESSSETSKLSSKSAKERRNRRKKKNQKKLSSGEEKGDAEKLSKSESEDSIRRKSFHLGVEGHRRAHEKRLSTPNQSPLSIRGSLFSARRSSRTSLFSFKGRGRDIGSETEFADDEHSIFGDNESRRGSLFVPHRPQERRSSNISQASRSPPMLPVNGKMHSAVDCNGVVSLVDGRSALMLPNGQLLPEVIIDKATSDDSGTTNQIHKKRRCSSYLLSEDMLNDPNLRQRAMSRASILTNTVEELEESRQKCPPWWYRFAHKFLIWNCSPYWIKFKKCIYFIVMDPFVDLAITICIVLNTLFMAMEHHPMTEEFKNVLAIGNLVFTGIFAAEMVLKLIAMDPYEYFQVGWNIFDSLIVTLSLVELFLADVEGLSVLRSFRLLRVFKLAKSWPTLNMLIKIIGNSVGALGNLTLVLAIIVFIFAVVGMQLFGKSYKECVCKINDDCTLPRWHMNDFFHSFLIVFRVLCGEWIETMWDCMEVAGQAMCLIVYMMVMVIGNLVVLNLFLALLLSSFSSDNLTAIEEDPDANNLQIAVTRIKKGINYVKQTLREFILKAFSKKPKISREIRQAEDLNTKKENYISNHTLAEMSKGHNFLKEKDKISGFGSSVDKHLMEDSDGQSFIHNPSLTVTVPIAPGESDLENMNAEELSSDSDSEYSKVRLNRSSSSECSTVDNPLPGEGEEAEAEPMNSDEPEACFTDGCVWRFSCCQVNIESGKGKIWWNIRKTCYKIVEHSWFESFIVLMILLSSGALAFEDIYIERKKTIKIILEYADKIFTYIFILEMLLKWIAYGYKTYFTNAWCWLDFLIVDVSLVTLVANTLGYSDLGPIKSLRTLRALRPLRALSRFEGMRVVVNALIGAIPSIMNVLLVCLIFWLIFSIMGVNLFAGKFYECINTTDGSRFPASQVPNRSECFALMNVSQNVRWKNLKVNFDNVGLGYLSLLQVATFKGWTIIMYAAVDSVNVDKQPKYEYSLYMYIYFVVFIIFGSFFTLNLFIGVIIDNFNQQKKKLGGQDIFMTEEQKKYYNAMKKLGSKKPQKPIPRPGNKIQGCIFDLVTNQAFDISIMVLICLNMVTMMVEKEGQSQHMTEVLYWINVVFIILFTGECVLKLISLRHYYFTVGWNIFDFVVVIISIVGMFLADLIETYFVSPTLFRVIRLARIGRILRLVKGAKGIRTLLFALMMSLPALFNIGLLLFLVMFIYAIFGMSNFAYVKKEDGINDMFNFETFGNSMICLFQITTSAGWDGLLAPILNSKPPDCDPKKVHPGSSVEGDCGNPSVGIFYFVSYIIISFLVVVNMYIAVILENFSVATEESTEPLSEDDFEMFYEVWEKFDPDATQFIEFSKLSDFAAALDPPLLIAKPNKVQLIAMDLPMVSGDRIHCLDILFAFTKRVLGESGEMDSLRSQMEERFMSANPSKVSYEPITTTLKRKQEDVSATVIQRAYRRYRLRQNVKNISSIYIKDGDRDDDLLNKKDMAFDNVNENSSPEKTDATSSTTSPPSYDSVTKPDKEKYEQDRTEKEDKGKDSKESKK

Row | Structure (SMILES) | IC50 [1] | IC50 [2]
1 | Cc1ccc(COc2cc(F)c(C(=O)NS(C)(=O)=O)cc2F)cc1Cl [Example 228, 4-[(3-chloro-4-methylbenzyl)oxy]-2,5-difluoro-N-(methylsulfonyl)benzamide] | 1.2 µM | –
2 | CS(=O)(=O)NC(=O)c1cc(F)c(COc2ccc(C#N)cc2F)cc1F [Example 104, 4-[(4-cyano-2-fluorophenoxy)methyl]-2,5-difluoro-N-(methylsulfonyl)benzamide] | 5.1 µM | –
3 | CS(=O)(=O)NC(=O)c1ccc(OCc2ccccc2F)cc1 [Example 180, 4-[(2-fluorobenzyl)oxy]-N-(methylsulfonyl)benzamide] | > 3 µM | –
4 | CS(=O)(=O)NC(=O)c1cc(F)c(OCc2cccc3ccccc23)cc1F [Example 194, 2,5-difluoro-N-(methylsulfonyl)-4-(1-naphthylmethoxy)benzamide] | 1.7 µM | –
5 | COc1ccc(OCc2ccc(C(=O)NS(C)(=O)=O)cc2)cc1 [Example 31, 4-[(4-Methoxyphenoxy)methyl]-N-(methylsulfonyl)benzamide] | – | 22 µM
6 | CS(=O)(=O)NC(=O)c1ccc(OCC2CCCC2)cc1 [Example 191, 4-(cyclopentylmethoxy)-N-(methylsulfonyl)benzamide] | 7.6 µM | –
7 | CS(=O)(=O)NC(=O)c1ccc(COc2cccc(Cl)c2)cc1 [Example 16, 4-((3-Chlorophenoxy)methyl)-N-(methylsulfonyl)benzamide Diethylamine salt] | 0.76 µM | –
8 | COc1ccc(OC)c(COc2cc(F)c(C(=O)NS(C)(=O)=O)cc2F)c1 [Example 202, 4-[(2,5-dimethoxybenzyl)oxy]-2,5-difluoro-N-(methylsulfonyl)benzamide] | 11 µM | –
